Reference: the RepoRT retention time repository
Structures can show the parent of a compound that is named as a salt.

experiment: RP, Waters CORTECS UPLC C18, 100 × 2.1 mm, 1.6 µm, 40 °C, 0.4 mL/min, estimated dead time 0.55 min; A: water + 0.1% formic acid, pH 3; B: acetonitrile + 0.1% formic acid, pH 3; gradient (min/%B) 0/5 1.12/5 6.41/99.5 10.01/99.5; conditions: stereoisomer not certain

Structure (SMILES) | LC retention time
O=C(O)c1cccc(O)c1O [2,3-DIHYDROXYBENZOATE] | 1.66 min
CC(C)Oc1cc(-n2nc(C(C)(C)C)oc2=O)c(Cl)cc1Cl [Oxadiazon] | 6.14 min
CC(CCC(=O)O)C1CCC2C3CCC4CC(O)CCC4(C)C3CC(O)C12C (centres undefined) [Deoxycholic acid] | 5.22 min
CCOP(=S)(OCC)Oc1cnc2ccccc2n1 [Quinalfos] | 5.44 min
O=C(Nc1ccccc1-c1ccc(Cl)cc1)c1cccnc1Cl [Boscalid] | 4.99 min
CCCCCCCCSC(=O)Oc1cc(Cl)nnc1-c1ccccc1 [Pyridat] | 6.78 min
Cn1c(=O)c2c(ncn2C)n(C)c1=O [CAFFEINE] | 2.52 min
CCCCC[n+]1cccc(S(=O)(=O)[O-])c1 [C5-APS] | 2.31 min
CCCCCCCCCCCCCC(O)CC(=O)OC(CC(=O)[O-])C[N+](C)(C)C [[(3R)-3-Hydroxyhexadecanoyl]-L-carnitine] | 5.1 min
CC(CC(=O)O)C1CCC2C3CCC4CC(O)CCC4(C)C3CC(O)C12C (centres undefined) [Nor-Desoxycholic Acid] | 4.88 min
COc1ccc2[nH]cc(CCNC(C)=O)c2c1 [MELATONIN] | 3.31 min
CNC(=O)ON=C(C)SC [Methomyl] | 4.02 min
CC12CCC(=O)C=C1CCC1C2CCC2(C)C1CCC2(O)C(=O)CO (centres undefined) [CORTEXOLONE] | 4.05 min
Nc1ccccc1C(=O)CC(N)C(=O)O (centres undefined) [KYNURENINE] | 1.19 min
O=c1c2cc(F)ccc2nc(-n2cncn2)n1-c1ccc(Cl)cc1Cl [Fluquinconazole] | 5.01 min
CC(C)(C)c1ccc(CSc2cnn(C(C)(C)C)c(=O)c2Cl)cc1 [Pyridaben] | 6.5 min
COc1nc(NC(C)C)nc(NC(C)C)n1 [Prometon] | 3.54 min
O=C(O)c1c[nH]c2ccccc12 [Indole-3-carboxylic acid] | 3.21 min
CC1NC(=O)NC1CCCCCC(=O)O (centres undefined) [DETHIOBIOTIN] | 2.9 min
CN(C)C(=O)NC1CCCCCCC1 [Cycluron] | 4.22 min
CCCCCCCCCC(O)CC(=O)OC(CC(=O)[O-])C[N+](C)(C)C [[(3R)-3-Hydroxydodecanoyl]-L-carnitine] | 4.2 min
COP(N)(=O)SC (centres undefined) [Methamidophos] | 0.974 min
CCCCC(O)(Cn1cncn1)c1ccc(Cl)cc1Cl (centres undefined) [Hexaconazole] | 5.17 min

Structure (SMILES) | LC retention time
CCCSP(=O)(OCC)Oc1ccc(Br)cc1Cl (centres undefined) [Profenofos] | 5.85 min
CCCCC(=O)OC(CC(=O)[O-])C[N+](C)(C)C [Valeryl-L-carnitine] | 2.66 min
Cc1cc(C)nc(NC(=O)NS(=O)(=O)c2ccccc2C(=O)OC2COC2)n1 [Oxasulfuron] | 3.85 min
CCOP(=S)(OCC)Oc1cc(C)nc(C(C)C)n1 [Diazinon] | 5.73 min
C=CCOC(Cn1ccnc1)c1ccc(Cl)cc1Cl (centres undefined) [Imazalil] | 3.88 min
C[Si](Cn1cncn1)(c1ccc(F)cc1)c1ccc(F)cc1 [Flusilazole] | 5.06 min
O=c1[nH]c(=O)c2[nH]cnc2[nH]1 [XANTHINE] | 0.727 min
CNC(=O)c1cc(Cl)cc(C)c1NC(=O)c1cc(Br)nn1-c1ncccc1Cl [Chlorantraniliprole] | 4.63 min
O=C(O)C=Cc1c[nH]c2ccccc12 [3-Indoleacrylic acid] | 3.58 min
CCS(=O)(=O)c1cccnc1S(=O)(=O)NC(=O)Nc1nc(OC)cc(OC)n1 [Rimsulfuron] | 4.11 min
OC(c1ccc(Cl)cc1)(c1cncnc1)c1ccccc1Cl (centres undefined) [Fenarimol] | 4.86 min
CNC(=O)Oc1cccc2c1OC(C)(C)C2 [Carbofuran] | 4.09 min
O=c1[nH]c(=O)c2ncn(C3OC(CO)C(O)C3O)c2[nH]1 (centres undefined) [XANTHOSINE] | 0.752 min
CC(CCC(=O)NCCS(=O)(=O)O)C1CCC2C3C(O)CC4CC(O)CCC4(C)C3CC(O)C12C (centres undefined) [Taurocholic acid sodium salt hydrate] | 3.74 min
CCCCc1c(C)nc(NCC)nc1OS(=O)(=O)N(C)C [Bupirimate] | 3.29 min
CC(CCC(=O)O)C1CCC2C3C(O)CC4CC(O)CCC4(C)C3CC(O)C12C (centres undefined) [Ursocholic acid (7-epicholic acid)] | 4.34 min
Cc1cnc2c(C(=O)O)c(Cl)ccc2c1 [Quinmerac] | 3.17 min
CC(=O)OCC(=O)C1(O)CCC2C3CCC4=CC(=O)CCC4(C)C3C(O)CC21C (centres undefined) [CORTISOL 21-ACETATE] | 4.25 min
COc1ccc(-c2ccccc2)cc1NNC(=O)OC(C)C [Bifenazate] | 5.09 min
CCCCCCCCC[n+]1cccc(S(=O)(=O)[O-])c1 [C9-APS] | 3.99 min
NCC(O)c1ccccc1 (centres undefined) [PHENYLETHANOLAMINE] | 0.755 min
CON(C)C(=O)Nc1ccc(Cl)c(Cl)c1 [Linuron] | 4.8 min
C[S+](CCC(N)C(=O)[O-])CC1OC(n2cnc3c(N)ncnc32)C(O)C1O (centres undefined) [S-ADENOSYLMETHIONINE] | 5.56 min

Structure (SMILES) | LC retention time
O=C(O)c1ccnc2ccccc12 [4-QUINOLINECARBOXYLATE] | 0.782 min
CC(C)OC(=O)C(C(=O)OC(C)C)=C1SCCS1 [Isoprothiolane] | 5.21 min
Cc1cccc2sc3nncn3c12 [Tricyclazol] | 3.38 min
O=C(O)CCc1ccccc1O [3-(2-HYDROXYPHENYL)PROPANOATE] | 5.17 min
O=C(Nc1ccccc1)Nc1cnns1 [Thidiazuron] | 3.74 min
O=C(NCc1ncc(C(F)(F)F)cc1Cl)c1c(Cl)cccc1Cl [Fluopicolide] | 5.06 min
CCOP(=S)(OCC)Oc1ccc2c(C)c(Cl)c(=O)oc2c1 [Coumaphos] | 5.6 min
CC(CCC(=O)NCC(=O)O)C1CCC2C3CC(O)C4CC(O)CCC4(C)C3CCC12C (centres undefined) [Glycohyodeoxycholic acid] | 4.08 min
Cn1cnc2c(ncn2C2OC(CO)C(O)C2O)c1=N (centres undefined) [1-METHYLADENOSINE] | 0.965 min
COc1cc(OC)nc(NC(=O)NS(=O)(=O)N(C)S(C)(=O)=O)n1 [Amidosulfuron] | 4.16 min
COC(=O)C=C(C)OP(=O)(OC)OC [Mevinphos] | 3.41 min
CCCCCCCCCCCCCC[n+]1cccc(S(=O)(=O)[O-])c1 [C14-APS] | 5.49 min
O=C1CC[C@@H](C(=O)O)N1 [L-Pyroglutamic acid] | 0.71 min
COC(=O)Cc1c[nH]c2ccccc12 [INDOLE-3-METHYL ACETATE] | 4.14 min
CC(C)=CC(=O)NCC(=O)O [3-Methylcrotonyl Glycine] | 2.29 min
COCCN(C(=O)CCl)c1c(C)cccc1C [Dimethachlor] | 4.55 min
CCCCCCCCC=CCCCCCCCC(=O)OC(CC(=O)[O-])C[N+](C)(C)C [Oleoyl-L-carnitine] | 5.63 min
CC1=C(C(=O)Nc2ccccc2)CCCO1 [Pyracarbolid] | 4.15 min
CC(CC(=O)[O-])CC(=O)OC(CC(=O)O)C[N+](C)(C)C (centres undefined) [3-Methylglutarylcarnitine] | 2.25 min
CCC(C)(CC)c1cc(NC(=O)c2c(OC)cccc2OC)on1 [Isoxaben] | 5.08 min
O=C(NC(=O)c1c(F)cccc1F)Nc1ccc(Cl)cc1 [Diflubenzuron] | 5.11 min
CCCOC(=O)NCCCN(C)C [Propamocarb] | 1.97 min
O=[N+]([O-])c1cc(C(F)(F)F)c(Cl)c([N+](=O)[O-])c1Nc1ncc(C(F)(F)F)cc1Cl [Fluazinam] | 5.97 min

Structure (SMILES) | LC retention time
NC1=C(Cl)C(=O)c2ccccc2C1=O [Quinoclamine] | 3.86 min
Cc1cc(C2CC2)nc(Nc2ccccc2)n1 [Cyprodinil] | 4.68 min
Cc1cc2nc3[nH]c(=O)[nH]c(=O)c3nc2cc1C [LUMICHROME] | 3.26 min
CC1(C)COC(=O)C1O (centres undefined) [PANTOLACTONE] | 3.31 min
COc1nc(C)nc(NC(=O)NS(=O)(=O)c2ccccc2Cl)n1 [Chlorsulfurson] | 4.12 min
CCOC(=O)CCN(Cc1ccccc1)SN(C)C(=O)ON=C(C)SC [Alanycarb] | 5.25 min
O=C(O)c1cc(=O)c2cccc(O)c2[nH]1 [XANTHURENATE] | 2.15 min
CC1=C(C(=O)Nc2ccccc2)SCCO1 [Carboxin] | 4.3 min
Clc1ccc(C2(Cn3cncn3)OCCO2)c(Cl)c1 [Azaconazole] | 4.32 min
CSC(C)=NOC(=O)N(C)SN(C)C(=O)ON=C(C)SC [Thiodicarb] | 4 min
O=C(Nc1ccccc1)N(Cc1ccc(Cl)cc1)C1CCCC1 [Pencycuron] | 5.69 min
Nc1cnn(-c2ccccc2)c(=O)c1Cl [Chloridazon] | 3.17 min
CCCN(CCC)C(=O)SCc1ccccc1 [Prosulfocarb] | 5.95 min
CCc1ccc(C(=O)NN(C(=O)c2cc(C)cc(C)c2)C(C)(C)C)cc1 [Tebufenozide] | 5.33 min
O=C(O)c1ccc2ccccc2n1 [2-QUINOLINECARBOXYLATE] | 2.4 min
COC(=O)C(C)N(C(=O)Cc1ccccc1)c1c(C)cccc1C (centres undefined) [Benalaxyl] | 5.46 min
CC(C)(C)C(O)C(Oc1ccc(Cl)cc1)n1cncn1 (centres undefined) [Triadimenol] | 4.74 min
O=C(NC(=O)c1c(F)cccc1F)Nc1ccc(Oc2ccc(C(F)(F)F)cc2Cl)cc1F [Flufenoxuron] | 6.08 min
CC1CCC2(OC1)OC1CC3C4CC=C5CC(O)CCC5(C)C4CCC3(C)C1C2C (centres undefined) [Diosgenin] | 7.3 min
CC12CC1(C)C(=O)N(c1cc(Cl)cc(Cl)c1)C2=O (centres undefined) [Procymidone] | 5.21 min
